Test results from US20250034186A1, “ANTIVIRAL COMPOUNDS” (priority 2020, published 2025).

Assays:
[1] = in vitro; assay type: cell-based; details: human, read-out: CC50 GALHEPG2
Description: The compound of Formula I and compounds 1, 2 and 6 were tested in a high-throughput 384-well assay format for cytotoxicity in galactose-adapted HepG2 cells (human liver carcinoma cell line).
Cells were diluted in media (DMEM (11966), 10% FBS, 1% NEAA, 0.2% Galactose, 1% Pyruvate, 1% Glutamax, 1% PSG) to 16.6K cells/mL and plated at 90 uL/well into 384 well poly-D-lysine coated assay plates and placed in an incubator at 37° C. and 5% CO2. Compounds were serially diluted (1:3) in 100% DMSO in 384-well plates in quadruplicate. DMSO and 2 mM Puromycin were included as negative and positive controls respectively. 24 hours after cell plating, a 384 channel pipettor was used to transfer 0.4 uL from the compound plate to the assay plate. Assay plates were returned to the incubator. After 5 days, assay plates were washed with 80 uL/well of PBS before addition of 20 μL of Cell Titer Glo. Assay plates were read on the Envision plate reader. […] CC50 values were calculated in Accord (on-line tool) using a one-site dose-response model to generate sigmoidal curve fits.

[2] = Stability assay in human hepatic S9 fractions; assay type: in vitro ADME; details: 37° C., NADPH and UDPGA, read-out: Hum HepS9 t1/2
Description: For S9 stability, the compounds were incubated at 2 μM in cynomolgus monkey or human hepatic S9 fractions for up to 90 min at 37° C. in the presence of NADPH and UDPGA (Phase I and Phase II cofactor, Sigma-Aldrich). At desired time points following compound addition, samples were quenched with 9 volumes of an aqueous solution containing internal standard, 50% acetonitrile and 25% methanol. Sample plates were centrifuged at 3000 g for 30 min, and 10 μL of the resulting solution was analyzed by LC-MS/MS. Data (analyte to internal standard peak area ratio) were plotted on a semi log scale and fitted using an exponential fit. The half-life (T1/2) was determined assuming first order kinetics.

[3] = system: HRVc15 replicon; experiment: HRVc15 HeLa replicon EC50; assay type: cell-based, human rhinovirus; details: for EC50: Human rhinovirus sp., HRV15, HRVc15 replicon in H1-HeLa cells, 48 hrs, luciferase, read-out: HRV15 Rep EC50
Description: First, HRV replicon RNA is prepared. 5 μg of DNA Template (HRVc15 or HRVc25) is linearized with 2 μL of MluI enzyme in NEB buffer-3 in a final volume of 25 μL for 3 hours at 37° C. Following incubation, linearized DNA is purified on a PCR purification column and the following in vitro transcription is performed using the following conditions: 10 μL of RiboMAX Express T7 2× buffer, 1-8 μL of linear DNA template (1 μg), 0-7 μL nuclease free water, 2 μL enzyme mix T7 express. The final volume of 20 μL is mixed and incubated at 37° C. for 30 min. Following incubation, 1 μL of RQ1 RNase free DNase is added and the mixture is incubated at 37° C. for 15 min. The resulting RNA is then purified with the MegaClear Kit (Gibco Life Technologies Cat #11835-030) and is eluted two times with 50 μL of elution buffer at 95° C. H1-HeLa cells cultured in complete RPMI 1640 media containing 10% heat-inactivated FBS and 1% Penicillin/Streptomycin are seeded into T-225 flasks at a concentration of 2E6 cells/flask a day prior to transfection and are incubated at 37° C./5% CO2 overnight. On the day of transfection, cells are trypsinized following standard cell culture protocols and are washed two times with PBS. Following washes, cells are resuspended at a concentration of 1E7 cells/mL in PBS and the suspension is stored on wet ice. Electroporation is used to introduce replicon RNA into the H1-HeLa cells. A final volume of 10 μL containing 10 μg of replicon c15 or 1 μg of c25 replicon RNA, respectively, are pipetted into a 4 mm electroporation cuvette. The H1-HeLa cell stock is mixed by gently swirling and 0.5 mL of the cell stock previously prepared is transferred into the cuvette containing the replicon RNA. The combined solution is flicked to mix. Following mixing, cells are immediately electroporated using the following settings: 900V, 25 uF, infinite resistance, 1 pulse. Cuvettes are rested on ice for 10 min. Following the 10 min incubation, add 19 mL of ambient temperature, phenol red-free and antibiotic-free RPMI 1640 containing 10% heat-inactivated FBS per electroporation. 150 μL (4E4 cells) of the electroporated cell suspension are seeded per well into a 96 well clear-bottom, white cell culture plate, and are incubated at 25° C. for 30 min. […] Replicon activity is then measured by a Renilla-Glo Luciferase Assay system. Prior to signal quantification, plates are removed from incubators and are allowed to equilibrate to 25° C. after 50 uL is removed from each well. […] Plates are then incubated for 20 min at 25° C. under gentle agitation and luciferase signal are determined with a 0.1 second detection setting using an EnVision luciferase quantification reader.

[4] = SAEC cytotoxicity assay; assay type: cell-based; details: human, small airway epithelial cells (SAEC)
Description: Human Small Airway Epithelial cells (SAEC) were purchased from Lonza (Walkersville, MD, Cat #CC-2547) and cultured in supplemented Small Airway Epithelial Cell Growth Medium (SAGM) (lonza, Walkersville, MD, Cat #CC-3118). The cells were passaged 1-2 times per week to maintain <80% confluency per manufacturer's protocol. The SAEC cells were discarded after 5 passages in culture.
Following attachment, 3-fold serially diluted compound was added using a Hewlett-Packard D300 Digital Dispenser (Hewlett Packard, Palo Alto, CA) in triplicate. The final concentration of DMSO was normalized to 1.0%. Following compound addition, NHBE or SAEC cells were incubated at 37° C. for 5 days. The NHBE or SAEC cells were then allowed to equilibrate to 25° C. and cell viability was determined by removing 100 μL of culture medium and adding 100 μL of Cell-Titer Glo viability reagent (Promega, Madison, WI). The mixtures were incubated for 10 minutes at 25° C., and the luminescence signal was quantified on an Envision luminescence plate reader (PerkinElmer, Waltham, MA). Percent viability values were determined by normalization to 1.0% DMSO-only control wells with background luminescent signal subtracted out.

`CCOC(=O)[C@H](C)NP(=O)(OC[C@@]1(C#N)O[C@@H](c2ccc3c(N)ncnn23)[C@H](O)[C@@H]1O)Oc1ccccc1` (stereo partly drawn) [Compound 1, reference compound] showed a CC50 at 5 days [1] greater than 44.4 µM and a half-life at 2 μM [2] of 12 min.
`CCC(CC)COC(=O)[C@H](C)NP(=O)(OC[C@@]1(C#N)O[C@@H](c2ccc3c(N)ncnn23)[C@H](O)[C@@H]1O)Oc1ccccc1` (stereo partly drawn) [Compound 2, reference compound] gave an EC50 [3] of 0.021 µM, a CC50 at 5 days [4] of 28.3 µM and a CC50 at 5 days [1] greater than 44.4 µM. It also gave a half-life at 2 μM [2] of 12 min.
For `CCC(CC)COC(=O)[C@H](C)N[P@](=O)(OC[C@@]1(C#N)O[C@@H](c2ccc3c(N)ncnn23)[C@H](O)[C@@H]1O)Oc1ccccc1` [Compound 6, 2-ethylbutyl ((S)-(((2R,3S,4R,5S)-5-(4-aminopyrrolo[2,1-f][1,2,4]triazin-7-yl)-2-cyano-3,4-dihydroxytetrahydrofuran-2-yl)methoxy)(phenoxy)phosphoryl)alaninate], the EC50 [3] was 0.017 µM, the CC50 at 5 days [4] was 27.2 µM and the CC50 at 5 days [1] was greater than 88.9 µM. The half-life at 2 μM [2] was 7 min.
For `C[C@H](N[P@](=O)(OC[C@@]1(C#N)O[C@@H](c2ccc3c(N)ncnn23)[C@H](O)[C@@H]1O)Oc1ccccc1)C(=O)OC1CCCCC1` [Formula I, cyclohexyl ((S)-(((2R,3S,4R,5S)-5-(4-aminopyrrolo[2,1-f][1,2,4]triazin-7-yl)-2-cyano-3,4-dihydroxytetrahydrofuran-2-yl)methoxy)(phenoxy)phosphoryl)-L-alaninate], the “times more potent compared to compound 2, HRV15 Rep” value ([3]; EC50 ratio vs compound 2) was “about 2.3 times”, the EC50 [3] was 0.009 µM and the CC50 at 5 days [4] was 123 µM. For the same molecule, the CC50 at 5 days [1] was greater than 88.9 µM and the half-life at 2 μM [2] was 31 min.
